PMC5693770 (Cell chemical biology, 2017)

Legend:
[1] = target: T1, TXNDC17 (Homo sapiens, UniProt Q9BRA2); test: in situ competitive isoTOP-ABPP in […]MFP cells, light to heavy ratio […]; format: cell-based
T1 sequence (Q9BRA2 2-123): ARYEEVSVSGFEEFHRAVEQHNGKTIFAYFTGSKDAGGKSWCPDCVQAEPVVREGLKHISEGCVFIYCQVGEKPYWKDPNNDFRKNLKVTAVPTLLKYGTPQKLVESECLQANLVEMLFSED

[2] = target: T2, PPP2R1A (Homo sapiens, UniProt P30153); test: gel-based ABPP, competition with IAyne labeling of pure protein; format: binding
T2 sequence (P30153 2-589): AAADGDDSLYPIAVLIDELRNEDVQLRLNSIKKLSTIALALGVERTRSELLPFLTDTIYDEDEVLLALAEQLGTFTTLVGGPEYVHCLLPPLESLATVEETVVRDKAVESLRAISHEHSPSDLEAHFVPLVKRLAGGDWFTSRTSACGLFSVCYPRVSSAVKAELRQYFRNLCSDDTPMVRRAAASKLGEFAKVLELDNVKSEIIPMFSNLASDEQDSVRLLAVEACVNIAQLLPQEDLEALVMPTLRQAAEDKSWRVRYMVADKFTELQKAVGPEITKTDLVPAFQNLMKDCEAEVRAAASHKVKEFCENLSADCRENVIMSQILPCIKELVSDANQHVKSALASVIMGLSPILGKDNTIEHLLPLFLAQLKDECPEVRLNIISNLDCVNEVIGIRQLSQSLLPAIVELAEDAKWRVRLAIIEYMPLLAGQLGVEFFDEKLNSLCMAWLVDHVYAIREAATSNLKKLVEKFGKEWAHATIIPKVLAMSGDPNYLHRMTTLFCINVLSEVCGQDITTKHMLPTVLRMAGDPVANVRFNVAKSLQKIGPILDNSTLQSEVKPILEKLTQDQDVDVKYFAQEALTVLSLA

[3] = target: T3, SCP2 (Homo sapiens, UniProt P22307); test: in situ competitive isoTOP-ABPP in […]MFP cells, light to heavy ratio […]; format: cell-based
T3 sequence (P22307 1-547): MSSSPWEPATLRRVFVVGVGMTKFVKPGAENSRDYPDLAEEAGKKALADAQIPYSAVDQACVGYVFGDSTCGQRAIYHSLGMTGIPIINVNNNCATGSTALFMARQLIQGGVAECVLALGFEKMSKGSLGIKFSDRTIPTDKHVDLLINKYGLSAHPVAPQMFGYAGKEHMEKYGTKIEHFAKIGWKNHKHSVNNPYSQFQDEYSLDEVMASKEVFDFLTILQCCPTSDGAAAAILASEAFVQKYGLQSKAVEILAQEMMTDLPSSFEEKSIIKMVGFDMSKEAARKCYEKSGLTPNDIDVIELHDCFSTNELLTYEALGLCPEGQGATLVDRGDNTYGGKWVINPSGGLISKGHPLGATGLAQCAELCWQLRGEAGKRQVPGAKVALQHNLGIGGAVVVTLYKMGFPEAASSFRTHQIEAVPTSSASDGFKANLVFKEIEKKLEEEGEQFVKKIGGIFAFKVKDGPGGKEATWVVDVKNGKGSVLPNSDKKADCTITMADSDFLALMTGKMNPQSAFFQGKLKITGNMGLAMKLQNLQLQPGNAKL

[4] = target: T4, ACAT1 (Homo sapiens, UniProt P24752); test: as above; format: cell-based
T4 sequence (P24752 34-427): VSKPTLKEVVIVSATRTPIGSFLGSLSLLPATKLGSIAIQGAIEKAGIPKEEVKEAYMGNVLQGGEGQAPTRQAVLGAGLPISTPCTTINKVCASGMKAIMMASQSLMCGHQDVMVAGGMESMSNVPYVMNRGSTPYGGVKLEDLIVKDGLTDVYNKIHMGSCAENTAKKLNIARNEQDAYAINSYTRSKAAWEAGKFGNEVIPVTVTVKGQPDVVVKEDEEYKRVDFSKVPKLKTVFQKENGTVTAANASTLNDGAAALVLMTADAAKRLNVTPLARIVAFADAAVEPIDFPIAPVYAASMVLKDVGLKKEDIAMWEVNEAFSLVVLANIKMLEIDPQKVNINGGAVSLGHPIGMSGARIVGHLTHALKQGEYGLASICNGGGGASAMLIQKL

[5] = target: CLIC4 (Homo sapiens, UniProt Q9Y696); test: as above; format: cell-based
CLIC4, sequence (Q9Y696 2-253): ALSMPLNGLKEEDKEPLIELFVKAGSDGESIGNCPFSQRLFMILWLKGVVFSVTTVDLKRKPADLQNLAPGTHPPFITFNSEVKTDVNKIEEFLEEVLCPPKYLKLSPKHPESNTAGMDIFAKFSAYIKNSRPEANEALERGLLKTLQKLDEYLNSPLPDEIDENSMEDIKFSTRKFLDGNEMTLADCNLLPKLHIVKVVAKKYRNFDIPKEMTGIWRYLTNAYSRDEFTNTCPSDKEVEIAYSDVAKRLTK

[6] = target: T2, PPP2R1A; test: gel-based ABPP, competition with IAyne labeling of pure protein; format: binding; remark: listed apart in the source
[7] = target: T2, PPP2R1A; test: gel-based ABPP, competition with IAyne labeling; format: binding

**Q.** Which results are given for DKM 2-90?
**A.** in situ competitive isoTOP-ABPP in 231MFP cells, light to heavy ratio >5 [1]: > 5 light to heavy ratio; IC50 [2]: 10 µM; in situ competitive isoTOP-ABPP in 231MFP cells, light to heavy ratio >5 [3]: > 5 light to heavy ratio; in situ competitive isoTOP-ABPP in 231MFP cells, light to heavy ratio >5 [4]: > 5 light to heavy ratio; in situ competitive isoTOP-ABPP in 231MFP cells, light to heavy ratio >5 [5]: > 5 light to heavy ratio

**Q.** Which IC50 [6] does the source give for O=C(CCl)N(Cc1ccccc1)c1ccc2c(c1)OCCO2 [JNS 1-40] here?
**A.** 0.63 µM

**Q.** With O=C(CCl)Nc1ccc2c(c1)CCCC2 [JNS 1-37] as the compound, how does the IC50 [7] read?
**A.** 300 µM
